In US8741899B2, “(4-chloro-2-fluoro-N-(2-fluorophenyl)-5-[(8aR)-hexahydropyrrolo-[1,2-a]pyrazin-2(1H)-ylcarbonyl]-benzenesulfonamide, and pharmaceutically acceptable salts thereof” (AbbVie Inc., priority 2009, dated 2014):

Target: T1, Human Cav3.2 Channels (Homo sapiens, UniProt O95180)
T1 construct: expressed in transfected cells
Experiment: Electrophysiologic (whole-cell patch-clamp) assessment of calcium channel activity in HEK293 cells stably expressing hCav3.2
Type: cell-based
Conditions: −77 mV, geometric mean, read-out: Human Cav3.2 −77 mV IC50 (μM) GeoMean
Protocol: (i) In Vitro Methods—Electrophysiologic Assessment of Calcium Channel Activity:
Patch-clamp recordings were performed using HEK293 cells stably expressing hCav3.2. Cells were plated in T175 flasks and grown at 37° C. and under 5% CO2 to approximately 50% confluency. On the day of the experiment, cells were harvested with Detachin™ cell detachment solution (Genlantis, San Diego, Calif.) and maintained in serum-free culture medium supplemented with 25 mM HEPES up to several hours prior to experiment. Whole-cell patch-clamp recordings were obtained using extracellular saline consisting of (mM): 87.5 CsCl, 40 TEA-Cl, 5 CaCl2, 1 MgCl2, 10 HEPES, 10 glucose. The pH was adjusted to 7.2 with CsOH and the osmolarity was adjusted to approximately 310 mOsm with sucrose. Intracellular solution consisted of (mM): 112 CsCl, 27 CsF, 2 NaCl, 8.2 EGTA, 10 HEPES. Prior to an experiment 4 mM Mg2ATP was added and the pH was adjusted to 7.2 with CsOH with an osmolarity of approximately 290 mOsm. A two-pulse voltage protocol was utilized to assess compound inhibition. First, cells were held with an 8 s pre-pulse at −100 mV prior to a 160 ms test pulse to −30 mV. This was followed by an 8 s pre-pulse at approximately −75 mV prior to a […]. Increasing concentrations of antagonist were applied to individual cells in a multi-addition format with 5 minutes in each test concentration. For each cell, responses were normalized to dimethyl sulfoxide vehicle control to generate concentration-response curves.

T1 sequence (O95180 whole entry): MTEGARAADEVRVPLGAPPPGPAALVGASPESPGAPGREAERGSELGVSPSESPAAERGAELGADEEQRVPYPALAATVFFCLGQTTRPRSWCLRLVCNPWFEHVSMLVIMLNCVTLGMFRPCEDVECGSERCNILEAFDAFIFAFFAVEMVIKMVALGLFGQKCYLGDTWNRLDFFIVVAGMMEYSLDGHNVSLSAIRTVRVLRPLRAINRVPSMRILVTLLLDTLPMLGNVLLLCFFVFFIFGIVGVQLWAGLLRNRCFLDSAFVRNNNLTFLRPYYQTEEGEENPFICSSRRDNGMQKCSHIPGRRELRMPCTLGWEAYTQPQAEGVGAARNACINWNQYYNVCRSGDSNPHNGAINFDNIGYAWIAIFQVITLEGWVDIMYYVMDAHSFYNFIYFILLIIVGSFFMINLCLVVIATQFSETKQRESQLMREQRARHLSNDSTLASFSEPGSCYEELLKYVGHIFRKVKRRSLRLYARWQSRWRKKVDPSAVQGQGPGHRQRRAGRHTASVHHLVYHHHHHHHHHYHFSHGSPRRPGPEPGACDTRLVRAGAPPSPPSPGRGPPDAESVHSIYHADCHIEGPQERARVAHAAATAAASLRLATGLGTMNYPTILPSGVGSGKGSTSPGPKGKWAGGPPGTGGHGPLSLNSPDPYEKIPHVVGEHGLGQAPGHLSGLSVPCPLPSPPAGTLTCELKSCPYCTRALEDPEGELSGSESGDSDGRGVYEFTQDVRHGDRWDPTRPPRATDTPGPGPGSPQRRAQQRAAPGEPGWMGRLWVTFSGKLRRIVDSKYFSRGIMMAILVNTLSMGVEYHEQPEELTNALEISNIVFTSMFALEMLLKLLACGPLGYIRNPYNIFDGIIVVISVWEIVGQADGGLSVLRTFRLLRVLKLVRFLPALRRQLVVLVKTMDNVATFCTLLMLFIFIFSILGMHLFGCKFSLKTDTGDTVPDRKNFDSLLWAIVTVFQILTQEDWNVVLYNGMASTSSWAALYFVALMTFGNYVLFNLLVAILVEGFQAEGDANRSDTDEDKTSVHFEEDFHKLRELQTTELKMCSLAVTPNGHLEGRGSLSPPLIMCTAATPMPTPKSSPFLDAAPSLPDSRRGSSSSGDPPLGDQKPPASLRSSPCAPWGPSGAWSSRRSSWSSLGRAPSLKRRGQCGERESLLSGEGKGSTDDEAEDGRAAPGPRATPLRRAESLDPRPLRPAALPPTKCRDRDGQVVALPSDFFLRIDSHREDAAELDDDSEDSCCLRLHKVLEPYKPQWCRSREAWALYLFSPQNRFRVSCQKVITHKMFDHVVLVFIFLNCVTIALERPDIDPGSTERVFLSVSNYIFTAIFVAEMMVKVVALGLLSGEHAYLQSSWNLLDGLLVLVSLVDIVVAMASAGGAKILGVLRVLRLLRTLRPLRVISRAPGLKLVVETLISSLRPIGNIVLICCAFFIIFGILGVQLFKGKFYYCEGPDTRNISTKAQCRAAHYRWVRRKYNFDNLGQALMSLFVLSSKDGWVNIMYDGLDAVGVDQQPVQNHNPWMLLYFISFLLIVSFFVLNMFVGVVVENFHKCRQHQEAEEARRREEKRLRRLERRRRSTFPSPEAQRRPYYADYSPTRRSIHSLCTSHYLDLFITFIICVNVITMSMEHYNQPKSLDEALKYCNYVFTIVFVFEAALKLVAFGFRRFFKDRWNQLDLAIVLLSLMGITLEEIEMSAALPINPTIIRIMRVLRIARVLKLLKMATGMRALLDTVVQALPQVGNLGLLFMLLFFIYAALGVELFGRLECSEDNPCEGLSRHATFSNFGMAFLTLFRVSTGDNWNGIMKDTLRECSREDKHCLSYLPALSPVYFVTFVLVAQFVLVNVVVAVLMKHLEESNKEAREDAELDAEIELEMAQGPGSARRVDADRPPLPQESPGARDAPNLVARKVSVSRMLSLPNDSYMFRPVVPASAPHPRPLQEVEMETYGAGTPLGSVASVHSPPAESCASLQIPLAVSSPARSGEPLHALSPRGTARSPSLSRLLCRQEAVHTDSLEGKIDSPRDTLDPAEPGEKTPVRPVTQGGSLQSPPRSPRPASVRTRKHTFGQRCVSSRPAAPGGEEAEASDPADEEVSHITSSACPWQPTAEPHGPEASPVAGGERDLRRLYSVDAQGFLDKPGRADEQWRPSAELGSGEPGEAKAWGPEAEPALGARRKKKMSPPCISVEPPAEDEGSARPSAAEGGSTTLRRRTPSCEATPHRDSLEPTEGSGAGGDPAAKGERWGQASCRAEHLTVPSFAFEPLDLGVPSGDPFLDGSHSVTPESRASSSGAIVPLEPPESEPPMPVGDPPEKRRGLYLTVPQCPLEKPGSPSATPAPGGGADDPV

| Structure (SMILES) | IC50 [µM] |
| --- | --- |
| O=C(c1cc(S(=O)(=O)N2CCN(c3ccc(F)cc3)CC2)c(F)cc1Cl)N1CCN2CCC[C@@H]2C1 [Example 67, (8aR)-2-(2-chloro-4-fluoro-5-{[4-(4-fluorophenyl)piperazin-1-yl]sulfonyl}benzoyl)octahydropyrrolo[1,2-a]pyrazine] | 3.18 |
| O=C(c1cccc(S(=O)(=O)Nc2ccc(F)cc2F)c1)N1CCN2CCC[C@H]2C1 [Example 16, N-(2,4-difluorophenyl)-3-[(8aS)-hexahydropyrrolo[1,2-a]pyrazin-2(1H)-ylcarbonyl]benzenesulfonamide] | 6 |
| O=C(NC(c1ccccc1)c1ccccc1)c1cc(S(=O)(=O)N2CCN3CCC[C@H]3C2)c(F)cc1Cl [Example 82, N-benzhydryl-2-chloro-4-fluoro-5-[(8aS)-hexahydropyrrolo[1,2-a]pyrazin-2(1H)-ylsulfonyl]benzamide] | 2.6 |
| O=C(c1cc(S(=O)(=O)Nc2ccccc2F)c(F)cc1Cl)N1CCN2CCC[C@H]2C1 [Example 58, 4-chloro-2-fluoro-N-(2-fluorophenyl)-5-[(8aS)-hexahydropyrrolo[1,2-a]pyrazin-2(1H)-ylcarbonyl]benzenesulfonamide] | 4.6 |
| O=C(c1ccc(Cl)c(NC(c2ccccc2)c2ccccc2)c1)N1CCN2CCC[C@@H]2C1 [Example 79, N-benzhydryl-N-{2-chloro-5-[(8aR)-hexahydropyrrolo[1,2-a]pyrazin-2(1H)-ylcarbonyl]phenyl}amine] | 8.5 |
| O=C(c1cccc(S(=O)(=O)N2CCN(C(c3ccccc3)c3ccccc3)CC2)c1)N1CCN2CCC[C@@H]2C1 [Example 24, (8aR)-2-{3-[(4-benzhydrylpiperazin-1-yl)sulfonyl]benzoyl}octahydropyrrolo[1,2-a]pyrazine] | 1 |
| O=C(c1cccc(S(=O)(=O)Nc2ccccc2C(F)(F)F)c1)N1CCN2CCC[C@@H]2C1 [Example 27, 3-[(8aR)-hexahydropyrrolo[1,2-a]pyrazin-2(1H)-ylcarbonyl]-N-[2-(trifluoromethyl)phenyl]benzenesulfonamide] | > 10 |
| O=C(NCC(c1ccccc1)c1ccccc1)c1cccc(S(=O)(=O)N2CCN3CCC[C@H]3C2)c1 [Example 53, N-(2,2-diphenylethyl)-3-[(8aS)-hexahydropyrrolo[1,2-a]pyrazin-2(1H)-ylsulfonyl]benzamide] | 0.5 |
| O=C(c1cccc(S(=O)(=O)Nc2ccc(F)cc2)c1)N1CCC(N2CCCCC2)CC1 [Example 46, 3-(1,4′-bipiperidin-1′-ylcarbonyl)-N-(4-fluorophenyl)benzenesulfonamide] | 1.8 |
| O=C(c1cccc(S(=O)(=O)N2CCN3CCC[C@H]3C2)c1)N1CCN(C(c2ccccc2)c2ccccc2)CC1 [Example 54, (8aS)-2-({3-[(4-benzhydrylpiperazin-1-yl)carbonyl]phenyl}sulfonyl)octahydropyrrolo[1,2-a]pyrazine] | 1.2 |
| O=C(c1cc(S(=O)(=O)NCCC(c2ccccc2)c2ccccc2)c(F)cc1Cl)N1CCN2CCC[C@H]2C1 [Example 59, 4-chloro-N-(3,3-diphenylpropyl)-2-fluoro-5-[(8aS)-hexahydropyrrolo[1,2-a]pyrazin-2(1H)-ylcarbonyl]benzenesulfonamide] | 9 |
| O=C(c1cccc(S(=O)(=O)Nc2ccccc2Cl)c1)N1CCN2CCC[C@@H]2C1 [Example 9, N-(2-chlorophenyl)-3-[(8aR)-hexahydropyrrolo[1,2-a]pyrazin-2(1H)-ylcarbonyl]benzenesulfonamide] | 7.3 |
| O=C(c1cccc(S(=O)(=O)N2CCN(C(c3ccccc3)c3ccccc3)CC2)c1)N1CCN2CCC[C@H]2C1 [Example 28, (8aS)-2-{3-[(4-benzhydrylpiperazin-1-yl)sulfonyl]benzoyl}octahydropyrrolo[1,2-a]pyrazine] | 1.9 |
| O=C(c1cccc(S(=O)(=O)N2CCN(C(c3ccc(F)cc3)c3ccc(F)cc3)CC2)c1)N1CCN2CCC[C@@H]2C1 [Example 22, (8aR)-2-[3-({4-[bis(4-fluorophenyl)methyl]piperazin-1-yl}sulfonyl)benzoyl]octahydropyrrolo[1,2-a]pyrazine] | 1.4 |
| Cc1cc(C(=O)N2CCN3CCC[C@@H]3C2)ccc1NC(=O)c1ccc2ccccc2c1 [Example 72, N-{4-[(8aR)-hexahydropyrrolo[1,2-a]pyrazin-2(1H)-ylcarbonyl]-2-methylphenyl}-2-naphthamide] | > 10 |
| O=C(NC1CC1)c1cc(S(=O)(=O)N2CCN3CCC[C@H]3C2)c(F)cc1Cl [Example 83, 2-chloro-N-cyclopropyl-4-fluoro-5-[(8aS)-hexahydropyrrolo[1,2-a]pyrazin-2(1H)-ylsulfonyl]benzamide] | > 10 |

| Structure (SMILES) | IC50 [µM] |
| --- | --- |
| O=C(c1cccc(S(=O)(=O)Nc2ccccc2-c2ccccc2)c1)N1CCN2CCC[C@H]2C1 [Example 36, N-1,1′-biphenyl-2-yl-3-[(8aS)-hexahydropyrrolo[1,2-a]pyrazin-2(1H)-ylcarbonyl]benzenesulfonamide] | 4.7 |
| O=C(c1ccc(F)c(NS(=O)(=O)c2cccc(C(F)(F)F)c2)c1)N1CCN2CCC[C@@H]2C1 [Example 65, N-{2-fluoro-5-[(8aR)-hexahydropyrrolo[1,2-a]pyrazin-2(1H)-ylcarbonyl]phenyl}-3-(trifluoromethyl)benzenesulfonamide] | 1.84 |
| O=C(Nc1cc(C(=O)N2CCN3CCC[C@@H]3C2)ccc1F)c1cc(Cl)cc(Cl)c1 [Example 73, 3,5-dichloro-N-{2-fluoro-5-[(8aR)-hexahydropyrrolo[1,2-a]pyrazin-2(1H)-ylcarbonyl]phenyl}benzamide] | 1.8 |
| O=C(c1cc(S(=O)(=O)NCC(c2ccccc2)c2ccccc2)c(F)cc1Cl)N1CCN2CCC[C@@H]2C1 [Example 70, 4-chloro-N-(2,2-diphenylethyl)-2-fluoro-5-[(8aR)-hexahydropyrrolo[1,2-a]pyrazin-2(1H)-ylcarbonyl]benzenesulfonamide] | 7.2 |
| O=C(c1cccc(S(=O)(=O)Nc2ccccc2)c1)N1CCC(N2CCCC2)CC1 [Example 41, N-phenyl-3-[(4-pyrrolidin-1-ylpiperidin-1-yl)carbonyl]benzenesulfonamide] | 5 |
| O=C(c1cccc(S(=O)(=O)Nc2cccc(C(F)(F)F)c2)c1)N1CCN2CCC[C@H]2C1 [Example 6, 3-[(8aS)-hexahydropyrrolo[1,2-a]pyrazin-2(1H)-ylcarbonyl]-N-[3-(trifluoromethyl)phenyl]benzenesulfonamide] | 1.9 |
| O=C(Nc1ccc(C(=O)N2CCN3CCC[C@@H]3C2)cc1Cl)c1ccc2ccccc2c1 [Example 76, N-{2-chloro-4-[(8aR)-hexahydropyrrolo[1,2-a]pyrazin-2(1H)-ylcarbonyl]phenyl}-2-naphthamide] | 6.4 |
| O=C(c1cccc(S(=O)(=O)Nc2cccc(F)c2F)c1)N1CCN2CCC[C@@H]2C1 [Example 14, N-(2,3-difluorophenyl)-3-[(8aR)-hexahydropyrrolo[1,2-a]pyrazin-2(1H)-ylcarbonyl]benzenesulfonamide] | 3.7 |
| O=C(c1cccc(S(=O)(=O)Nc2ccccc2Cl)c1)N1CCN2CCC[C@H]2C1 [Example 10, N-(2-chlorophenyl)-3-[(8aS)-hexahydropyrrolo[1,2-a]pyrazin-2(1H)-ylcarbonyl]benzenesulfonamide] | 1.5 |
| O=C(c1cccc(S(=O)(=O)N2CCN3CCC[C@@H]3C2)c1)N1CCN(C(c2ccccc2)c2ccccc2)CC1 [Example 52, (8aR)-2-({3-[(4-benzhydrylpiperazin-1-yl)carbonyl]phenyl}sulfonyl)octahydropyrrolo[1,2-a]pyrazine] | 0.6 |
| O=C(NCCc1ccc(F)cc1)c1cccc(S(=O)(=O)N2CCN3CCC[C@H]3C2)c1 [Example 56, N-[2-(4-fluorophenyl)ethyl]-3-[(8aS)-hexahydropyrrolo[1,2-a]pyrazin-2(1H)-ylsulfonyl]benzamide] | 4.1 |
| O=C(c1cccc(S(=O)(=O)Nc2ccccc2F)c1)N1CCN2CCC[C@H]2C1 [Example 17, N-(2-fluorophenyl)-3-[(8aS)-hexahydropyrrolo[1,2-a]pyrazin-2(1H)-ylcarbonyl]benzenesulfonamide] | > 10 |
| O=C(c1ccc(S(=O)(=O)N[C@H](CO)c2ccccc2)cc1)N1CCN2CCC[C@@H]2C1 [Example 62, 4-[(8aR)-hexahydropyrrolo[1,2-a]pyrazin-2(1H)-ylcarbonyl]-N-[(1S)-2-hydroxy-1-phenylethyl]benzenesulfonamide] | > 10 |
| O=C(c1cccc(S(=O)(=O)Nc2cc(F)ccc2F)c1)N1CCN2CCC[C@H]2C1 [Example 12, N-(2,5-difluorophenyl)-3-[(8aS)-hexahydropyrrolo[1,2-a]pyrazin-2(1H)-ylcarbonyl]benzenesulfonamide] | 4.7 |
| O=C(c1cccc(S(=O)(=O)Nc2cc(F)ccc2F)c1)N1CCN2CCC[C@@H]2C1 [Example 15, N-(2,5-difluorophenyl)-3-[(8aR)-hexahydropyrrolo[1,2-a]pyrazin-2(1H)-ylcarbonyl]benzenesulfonamide] | > 10 |
| O=C(c1cccc(S(=O)(=O)Nc2ccccc2F)c1)N1CCC(N2CCCC2)CC1 [Example 45, N-(2-fluorophenyl)-3-[(4-pyrrolidin-1-ylpiperidin-1-yl)carbonyl]benzenesulfonamide] | > 10 |
